Results as given in patent publication US8685538B2, “Stable polyelectrolyte coated nanoparticles” (Northeastern University, priority 2009, dated 2014).

Test: Zeta potential (surface potential) measurement after each polyelectrolyte coating
Assay type: physicochemical
Procedure: 5 mg paclitaxel or atavoquone was dissolved in 5 mL of a 60% ethanol/water or a 60% acetone/water solution in a glass tube. This solution was ultrasonicated at 100% amplitude for 2 min, and then 1 mL of a 5 mg/mL polylysine, polyethylenimine, or protomine sulphate solution was added. This was then ultrasonicated for 1 min while adding water at certain speeds and volumes (e.g., 1 mL/min until 5 mL to 10 mL was reached). This was then ultrasonicated for another 30 min. After sonication, the zeta potential of the sample was measured to assure recharging of the formed paclitaxel nanocrystals to positive. Layer-by-layer (LbL) coating with 2 layers of BSA/PS (bovine serum albumin/protamine sulfate) was performed (as described in, e.g., WO2009/012303), followed by SEM readings and measurement of zeta potential.
After each coating, a sample was taken and surface potential was measured using a Zeta potential analyzer.
PAH and PSS were alternately added to the curcumin nanoparticles using the LbL procedure. […] PAH adsorption during nanoparticles synthesis converted the potential to +30±2 mV. Next, anionic PSS adsorption changed the potential to −53±2 mV, followed by +19±2 mV with the addition of PAH, and again to −50±2 mV with the addition of PSS. Therefore, multiple layers of polycations and polyanions, i.e., (PAH/PSS)2, were coated onto the curcumin nanoparticles.

zeta potential (bare, initial potential, FIG. 7) [mV]	zeta potential (initial paclitaxel compound, no coating, FIG. 4)	SMILES
−50±2		COc1cc(/C=C/C(=O)CC(=O)/C=C/c2ccc(O)c(OC)c2)ccc1O [bare curcumin microparticles, curcumin]
	about −60 mV	CC(=O)O[C@H]1C(=O)[C@@]2(C)[C@H]([C@H](OC(=O)c3ccccc3)[C@]3(O)C[C@H](OC(=O)[C@H](O)[C@@H](NC(=O)c4ccccc4)c4ccccc4)C(C)=C1C3(C)C)[C@]1(OC(C)=O)CO[C@@H]1C[C@@H]2O [paclitaxel]
